In brackets after ≈: the same amount, converted by molar mass. Like-named read-outs stand apart in the source and are kept apart here.
Legend:
[1] = tested on: Acinetobacter baumannii/haemolyticus: Multidrug-resistant clinical isolate AB-3167; assay: MIC determination (CLSI), AB-3167; format: cell-based; details: overnight incubation, duplicate, lower of the two values reported
Protocol: (§1) The in vitro antibacterial activity of compounds described in the Examples was evaluated by minimum inhibitory concentration (MIC) testing according to Clinical and Laboratory Standards Institute (CLSI). See: Clinical and Laboratory Standards Institute. Methods for Dilution Antimicrobial Susceptibility Tests for Bacteria that Grow Aerobically; Approved Standard-Eighth Edition. CLSI document M7-A8 [ISBN 1-56238-689-1]. Clinical and Laboratory Standards Institute, 940 West Valley Road, Suite 1400, Wayne, Pa. 19087-1898 USA, 2006; also Clinical and Laboratory Standards Institute. Performance Standards for Antimicrobial Susceptibility Testing; Twentieth Informational Supplement. CLSI document M100-S20 [ISBN1-56238-716-2]. Clinical and Laboratory Standards Institute.
(§2) The MIC determination is a standard laboratory method for evaluating the antibacterial activity of a compound. The MIC represents the lowest drug concentration that inhibits visible growth of bacteria following overnight incubation. […] Typically, the drug concentration range is broken down into 2-fold increments (e.g., 0.06 μg/mL, 0.12 μg/mL. 0.25 μg/mL, 0.50 μg/mL, 1.0 μg/mL, etc.) and the various drug concentrations are all individually incubated overnight with approximately the same number of bacteria. The MIC is then determined by visually inspecting the drug effect at each concentration, and identifying the lowest drug concentration that has inhibited bacterial growth as compared to the drug free control. Typically, bacteria continue to grow at drug concentrations lower than the MIC and don't grow at concentrations at and above the MIC.
(§3) The MIC values described in Tables 4 and 5 below were derived from assays wherein each test compound was evaluated in duplicate. In cases where the duplicate values varied by 0-2-fold, the lower of the two values was reported below. Generally speaking, if the duplicate values varied by more than 2-fold, the assay was considered non-valid and was repeated until the variation between duplicate runs was 2-fold. In line with the CLSI guidelines referred to above, both control organisms and reference compounds were utilized in each MIC assay to provide proper quality control. MIC values generated with these control organisms and reference compounds were required to fall within a defined range for the assay to be considered valid and be included herein. Those skilled in the art will recognize that MIC values can and do vary from experiment to experiment. Generally speaking, it should be recognized that MIC values often vary +/−2-fold from experiment to experiment. While a single MIC is reported for each compound and each microorganism, the reader should not conclude that each compound was only tested once. Several of the compounds were subjected to multiple tests. The data reported in Tables 4 and 5 is reflective of the compound's relative activity and different MICs may have been generated on these occasions in line with the guidelines described above.
(§4) The following bacterial strains were used in these MIC determinations:
3) Acinetobacter baumannii/haemolyticus: Multidrug-resistant clinical isolate labeled as AB-3167 in Tables 4 and 5;

[2] = tested on: Pseudomonas aeruginosa UC12120 (mouse virulent); assay: MIC determination (CLSI), PA-UC12120; format: cell-based; details: UC12120, read-out: PA-UC12120 MIC
Protocol: as §1, §2, §3, §4
1) Pseudomonas aeruginosa UC12120 (mouse virulent) labeled as PA-UC12120 in Tables 4 and 5;

[3] = tested on: Escherichia coli EC-1: VOGEL, mouse virulent; assay: MIC determination (CLSI), EC-1; format: cell-based; details: read-out: EC-1 MIC
Protocol: as §1, §2, §3, §4
2) Escherichia coli EC-1: VOGEL, mouse virulent labeled as EC-1 in Tables 4 and 5;

[4] = target: T1, Pseudomonas aeruginosa LpxC enzyme (Pseudomonas aeruginosa, UniProt P47205); assay: LpxC enzyme IC50 assay (PA LpxC enzyme IC50), BioTrove RapidFire mass spectrometry; format: biochemical
T1 construct: made in house; host or cells: E. coli
T1 sequence (P47205 1-303): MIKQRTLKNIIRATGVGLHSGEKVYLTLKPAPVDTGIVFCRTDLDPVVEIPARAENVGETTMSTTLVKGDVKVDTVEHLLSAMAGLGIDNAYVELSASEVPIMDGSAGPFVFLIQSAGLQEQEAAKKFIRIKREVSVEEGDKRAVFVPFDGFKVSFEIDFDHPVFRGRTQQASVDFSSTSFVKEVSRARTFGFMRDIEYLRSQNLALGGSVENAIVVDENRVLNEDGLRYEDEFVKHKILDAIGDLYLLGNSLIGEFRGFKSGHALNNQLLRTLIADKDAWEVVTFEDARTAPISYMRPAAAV
Protocol: In order to assess the compounds biological activity selected in vitro assays were conducted on selected compounds. One of the assays measured the compounds ability to disrupt the synthesis of lipopolysaccharide, LPS, which is a component of the outer membrane of Gram-negative bacteria. Disruption of this synthesis is lethal to the bacteria. The assay determined the compound's ability to inhibit LpxC, which is the first enzyme in the biosynthetic pathway for LPS (measured as IC50). Additionally, MICs (minimal inhibitory concentrations) were determined for several bacteria. The specific protocols are described below:
A) IC50 Assay LpxC Enzyme from P. aeruginosa Labeled as PA LpxC Enzyme IC50):
At the end of 1 hour, 5 ul of 1 N HCl was added to stop the enzyme reaction, the plates were centrifuged, and then processed with the BioTrove Rapidfire HTMS Mass Spectrometry System. A no-enzyme control was used in calculating the IC50 values from the percent conversion values.

[5] = P. aeruginosa LpxC enzyme 0.1 nM, 25° C., 1 hour, pH 8.0, read-out: PA:IC50

SMILES	MIC [1] [µg/mL]	MIC [2] [µg/mL]	MIC [3] [µg/mL]	IC50 [4, 5] [nM]	IC50 [4] [nM]
COc1cccc(-c2cc(CCC(C)(C(=O)NO)S(C)(=O)=O)no2)c1 (racemic) [Example 29, N-hydroxy-4-[5-(3-methoxyphenyl)isoxazol-3-yl]-2-methyl-2-(methylsulfonyl)butanamide]	> 64	8 (≈ 21.7 µM)	64 (≈ 174 µM)	–	–
COc1ccc(C(=O)NCc2cc(CCC(C)(C(=O)NO)S(C)(=O)=O)no2)cc1 (racemic) [Example 11, N-({3-[4-(hydroxyamino)-3-methyl-3-(methylsulfonyl)-4-oxobutyl]isoxazol-5-yl}methyl)-4-methoxybenzamide]	> 64	> 64	> 64	–	–
CC(CCc1cc(-c2ccc(F)cc2F)on1)(C(=O)NO)S(C)(=O)=O (racemic) [Example 28, 4-[5-(2,4-difluorophenyl)isoxazol-3-yl]-N-hydroxy-2-methyl-2-(methylsulfonyl)butanamide]	–	–	–	2.8	–
C[C@@](CCc1cc(-c2ccccc2)no1)(C(=O)NO)S(C)(=O)=O [Example 4, (2R)-N-hydroxy-2-methyl-2-(methylsulfonyl)-4-(3-phenylisoxazol-5-yl)butanamide]	> 64	0.25 (≈ 0.739 µM)	4 (≈ 11.8 µM)	5.78	–
COc1ccc(-c2cc(CC[C@](C)(C(=O)NO)S(C)(=O)=O)no2)c(F)c1 [Example 5, (2R)-4-[5-(2-fluoro-4-methoxyphenyl)isoxazol-3-yl]-N-hydroxy-2-methyl-2-(methylsulfonyl)butanamide]	> 64	0.25 (≈ 0.647 µM)	4 (≈ 10.4 µM)	–	–
CCCCSC(=O)N(C)Cc1cc(CCC(C)(C(=O)NO)S(C)(=O)=O)no1 (racemic) [Example 14, S-butyl ({3-[4-(hydroxyamino)-3-methyl-3-(methylsulfonyl)-4-oxobutyl]isoxazol-5-yl}methyl)methylthiocarbamate]	> 64	> 64	> 64	> 100	–
CC(CCc1cc(-c2ccc(F)c(F)c2F)no1)(C(=O)NO)S(C)(=O)=O (racemic) [Example 36, N-hydroxy-2-methyl-2-(methylsulfonyl)-4-[3-(2,3,4-trifluorophenyl)isoxazol-5-yl]butanamide]	> 64	1 (≈ 2.55 µM)	16 (≈ 40.8 µM)	3.9	–
COc1ccc(-c2cc(CCC(C)(C(=O)NO)S(C)(=O)=O)on2)cc1 (racemic) [Example 47, N-hydroxy-4-[3-(4-methoxyphenyl)isoxazol-5-yl]-2-methyl-2-(methylsulfonyl)butanamide]	> 64	1 (≈ 2.71 µM)	16 (≈ 43.4 µM)	4.1	–
CC(CCc1cc(-c2ccnc3ccccc23)no1)(C(=O)NO)S(C)(=O)=O (racemic) [Example 46, N-hydroxy-2-methyl-2-(methylsulfonyl)-4-(3-quinolin-4-ylisoxazol-5-yl)butanamide]	–	–	–	5.4	–
COc1ccccc1-c1cc(CCC(C)(C(=O)NO)S(C)(=O)=O)no1 (racemic) [Example 16, N-hydroxy-4-[5-(2-methoxyphenyl)isoxazol-3-yl]-2-methyl-2-(methylsulfonyl)butanamide]	> 64	16 (≈ 43.4 µM)	> 64	40.5	–
CC(CCc1cc(-c2cnc3ccccc3c2)no1)(C(=O)NO)S(C)(=O)=O (racemic) [Example 40, N-hydroxy-2-methyl-2-(methylsulfonyl)-4-(3-quinolin-3-ylisoxazol-5-yl)butanamide]	–	–	–	25.2	–
COc1cccc(-c2cc(CC[C@](C)(C(=O)NO)S(C)(=O)=O)on2)c1F [Example 1, (2R)-4-[3-(2-Fluoro-3-methoxyphenyl)isoxazol-5-yl]-N-hydroxy-2-methyl-2-(methylsulfonyl)butanamide]	> 64	2 (≈ 5.18 µM)	4 (≈ 10.4 µM)	–	5.32
CC(CCc1cc(CN(CCOc2ccccc2)C2CC2)on1)(C(=O)NO)S(C)(=O)=O (racemic) [Example 18, 4-(5-{[cyclopropyl(2-phenoxyethyl)amino]methyl}isoxazol-3-yl)-N-hydroxy-2-methyl-2-(methylsulfonyl)butanamide]	> 64	> 64	> 64	–	–
CC(CCc1cc(COc2ccc3c(c2)OCO3)on1)(C(=O)NO)S(C)(=O)=O (racemic) [Example 26, 4-{5-[(1,3-benzodioxol-5-yloxy)methyl]isoxazol-3-yl}-N-hydroxy-2-methyl-2-(methylsulfonyl)butanamide]	> 64	4 (≈ 9.7 µM)	16 (≈ 38.8 µM)	–	–
COc1ccccc1SCc1cc(CCC(C)(C(=O)NO)S(C)(=O)=O)no1 (racemic) [Example 19, N-hydroxy-4-(5-{[(2-methoxyphenyl)thio]methyl}isoxazol-3-yl)-2-methyl-2-(methylsulfonyl)butanamide]	> 64	64 (≈ 154 µM)	> 64	–	–
CC(CCc1cc(-c2ccc(Cl)c(Cl)c2)on1)(C(=O)NO)S(C)(=O)=O (racemic) [Example 20, 4-[5-(3,4-dichlorophenyl)isoxazol-3-yl]-N-hydroxy-2-methyl-2-(methylsulfonyl)butanamide]	16 (≈ 39.3 µM)	1 (≈ 2.46 µM)	4 (≈ 9.82 µM)	–	–
COc1cccc(-c2cc(CC[C@](C)(C(=O)NO)S(C)(=O)=O)no2)c1F [Example 2, (2R)-4-[5-(2-Fluoro-3-methoxyphenyl)isoxazol-3-yl]-N-hydroxy-2-methyl-2-(methylsulfonyl)butanamide]	32 (≈ 82.8 µM)	16 (≈ 41.4 µM)	16 (≈ 41.4 µM)	–	–
CC(CCc1cc(CCCCCCCCCO)on1)(C(=O)NO)S(C)(=O)=O (racemic) [Example 15, N-hydroxy-4-[5-(9-hydroxynonyl)isoxazol-3-yl]-2-methyl-2-(methylsulfonyl)butanamide]	> 64	4 (≈ 9.89 µM)	16 (≈ 39.6 µM)	–	–
Cc1cccc(-c2cc(CCC(C)(C(=O)NO)S(C)(=O)=O)no2)c1 (racemic) [Example 13, N-hydroxy-2-methyl-4-[5-(3-methylphenyl)isoxazol-3-yl]-2-(methylsulfonyl)butanamide]	64 (≈ 182 µM)	1 (≈ 2.84 µM)	32 (≈ 90.8 µM)	–	–
CC(CCc1cc(-c2ccc(F)cc2F)no1)(C(=O)NO)S(C)(=O)=O (racemic) [Example 50, 4-[3-(2,4-difluorophenyl)isoxazol-5-yl]-N-hydroxy-2-methyl-2-(methylsulfonyl)butanamide]	> 64	1 (≈ 2.67 µM)	16 (≈ 42.7 µM)	–	–
CC(CCc1cc(C(=O)NC2CCCCC2)no1)(C(=O)NO)S(C)(=O)=O (racemic) [Example 45, N-cyclohexyl-5-[4-(hydroxyamino)-3-methyl-3-(methylsulfonyl)-4-oxobutyl]isoxazole-3-carboxamide]	> 64	> 64	> 64	–	–

From patent US8748466B2, “Isoxazole derivatives useful as antibacterial agents” (Pfizer Inc., priority 2011, dated 2014)
